# Test system: Sprague-Dawley rats
# Assay: Example 71: toxicity study of luciferase mRNA in rats: weight, electrolytes, hematology, WBC, serum chemistry, liver proteins (Tables 104-110)
# Assay type: in vivo
# Settings: for Mean weight Gain / Weight Gain: 7 days after administration; for ALP / ALT / AST / Albumin / Basophils (BASO %) / Bicarbonate / CPK / Calcium / Chloride / Eosinophils (EOS %) / Globulin / HCT / HGB / Lymphocytes (LYM %) / MCH / MCV / Monocytes (MON %) / Neutrophil (NEU-SEG %) / Phosphorus / Potassium / RBC / Sodium / Total Protein / WBC / MCHC: after 7 days
# Procedure: A control group were administered the formulation buffer (F. Buffer). After 7 days the rats were sacrificed.
# The rats were weighed before the administration of mRNA and 7 days after administration. […] Each group analyzed consumed about the same amount of food over the course of the study.
# After 7 days the rats were sacrificed and samples were taken to determine electrolytes. The calcium, bicarbonate, potassium, phosphorus, chloride and sodium levels in each group were analyzed.
# After 7 days the rats were sacrificed and samples were taken to determine hematology levels. The red blood cell (RBC), hematocrit (HGT), mean corpuscular volume (MCV), hemoglobin (HGB), mean corpuscular hemoglobin (MCH) and mean corpuscular hemoglobin concentration (MCHC) was determined for each group.
# After 7 days the rats were sacrificed and samples were taken to determine white blood cell count. Neutrophils (percent segmented neutrophils), monocytes, basophils, lymphocytes, eosinophil and white blood cell (WBC) was determined for each group.
# After 7 days the rats were sacrificed and samples were taken to determine serum chemistry. The alkaline phosphatase (ALP), aspartate transaminase (AST), alanine transaminase (ALT) and creatine phosphokinase (CPK) was determined for each group.
# After 7 days the rats were sacrificed and samples were taken to determine liver protein levels. The level of albumin, globulin and total protein was determined for each group.
# Doses as high as 30 times the effective dose appear to be safe from this analysis.
substance,measurement,setting,value
"Luciferase: luciferase mRNA, SEQ ID NO: 14, Cap1, fully modified with 5-methylcytosine and pseudouridine",Mean weight Gain,100 ug,16.875 g
same,Weight Gain,100 ug,6.5%
same,ALP,100 ug,144.4 IU/L
same,ALT,100 ug,60.8 IU/L
same,AST,100 ug,198.3 IU/L
same,Albumin,100 ug,3.3 g/dL
same,Basophils (BASO %),100 ug,0.4%
same,Bicarbonate,100 ug,19.9 mEg/L
same,CPK,100 ug,488.1 IU/L
same,Calcium,100 ug,9.8 mg/dL
same,Chloride,100 ug,101.0 mEg/L
same,Eosinophils (EOS %),100 ug,1.3%
same,Globulin,100 ug,2.5 g/dL
same,HCT,100 ug,44.1%
same,HGB,100 ug,14.7 g/dL
same,Lymphocytes (LYM %),100 ug,85.9%
same,MCH,100 ug,19.5 pg
same,MCV,100 ug,58.7 fL
same,Monocytes (MON %),100 ug,2.0%
same,Neutrophil (NEU-SEG %),100 ug,10.6%
same,Phosphorus,100 ug,8.3 mg/dL
same,Potassium,100 ug,4.7 mEg/L
same,RBC,100 ug,7.5 Million/uL
same,Sodium,100 ug,139.6 mEg/L
same,Total Protein,100 ug,5.8 g/dL
same,WBC,100 ug,14 Thous./uL
same,Mean weight Gain,300 ug,22.125 g
same,Weight Gain,300 ug,8.3%
same,ALP,300 ug,169.5 IU/L
same,ALT,300 ug,49.3 IU/L
same,AST,300 ug,200.3 IU/L
same,Albumin,300 ug,3.2 g/dL
same,Basophils (BASO %),300 ug,0.4%
same,Bicarbonate,300 ug,23.3 mEg/L
same,CPK,300 ug,968.3 IU/L
same,Calcium,300 ug,9.8 mg/dL
same,Chloride,300 ug,100.5 mEg/L
same,Eosinophils (EOS %),300 ug,1.0%
same,Globulin,300 ug,2.4 g/dL
same,HCT,300 ug,43.5%
same,HGB,300 ug,14.5 g/dL
same,Lymphocytes (LYM %),300 ug,83.6%
same,MCH,300 ug,19.8 pg
same,MCHC,300 ug,33.3 g/dL
same,MCV,300 ug,59.6 fL
same,Monocytes (MON %),300 ug,2.8%
same,Neutrophil (NEU-SEG %),300 ug,12.0%
same,Phosphorus,300 ug,8.2 mg/dL
same,Potassium,300 ug,4.4 mEg/L
same,RBC,300 ug,7.3 Million/uL
same,Sodium,300 ug,139.6 mEg/L
same,Total Protein,300 ug,5.6 g/dL
same,WBC,300 ug,10.2 Thous./uL
same,Mean weight Gain,1000 ug,19 g
same,Weight Gain,1000 ug,6.95%
same,ALP,1000 ug,150.5 IU/L
same,ALT,1000 ug,51.5 IU/L
same,AST,1000 ug,189.8 IU/L
same,Albumin,1000 ug,3.2 g/dL
same,Bicarbonate,1000 ug,22.5 mEg/L
same,CPK,1000 ug,744 IU/L
same,Calcium,1000 ug,10.6 mg/dL
same,Chloride,1000 ug,101.0 mEg/L
same,Eosinophils (EOS %),1000 ug,1.5%
same,Globulin,1000 ug,2.7 g/dL
same,HCT,1000 ug,42.5%
same,HGB,1000 ug,14.2 g/dL
same,Lymphocytes (LYM %),1000 ug,83.0%
same,MCH,1000 ug,19.55 pg
same,MCHC,1000 ug,33.3 g/dL
same,MCV,1000 ug,58.8 fL
same,Monocytes (MON %),1000 ug,2.3%
same,Neutrophil (NEU-SEG %),1000 ug,12.8%
same,Phosphorus,1000 ug,9.1 mg/dL
same,Potassium,1000 ug,5.2 mEg/L
same,RBC,1000 ug,7.2 Million/uL
same,Sodium,1000 ug,138.8 mEg/L
same,Total Protein,1000 ug,5.9 g/dL
same,WBC,1000 ug,10.7 Thous./uL
same,Mean weight Gain,3 × 1000 ug,20.375 g
same,Weight Gain,3 × 1000 ug,7.7%
same,ALP,3 × 1000 ug,152.0 IU/L
same,ALT,3 × 1000 ug,45.9 IU/L
same,Albumin,3 × 1000 ug,3.4 g/dL
same,Basophils (BASO %),3 × 1000 ug,0.1%
same,Bicarbonate,3 × 1000 ug,22.6 mEg/L
same,CPK,3 × 1000 ug,481.1 IU/L
same,Calcium,3 × 1000 ug,10.2 mg/dL
same,Chloride,3 × 1000 ug,100.4 mEg/L
same,Eosinophils (EOS %),3 × 1000 ug,0.9%
same,Globulin,3 × 1000 ug,2.6 g/dL
same,HCT,3 × 1000 ug,43.5%
same,HGB,3 × 1000 ug,14.4 g/dL
same,Lymphocytes (LYM %),3 × 1000 ug,85.5%
same,MCH,3 × 1000 ug,20.0 pg
same,MCHC,3 × 1000 ug,33.1 g/dL
same,MCV,3 × 1000 ug,60.6 fL
same,Monocytes (MON %),3 × 1000 ug,2.0%
same,Neutrophil (NEU-SEG %),3 × 1000 ug,11.6%
same,Phosphorus,3 × 1000 ug,8.11 mg/dL
same,Potassium,3 × 1000 ug,4.6 mEg/L
same,RBC,3 × 1000 ug,7.2 Million/uL
same,Sodium,3 × 1000 ug,138.8 mEg/L
same,Total Protein,3 × 1000 ug,6.0 g/dL
same,WBC,3 × 1000 ug,10.9 Thous./uL
same,adverse effects of high doses,7 days,do not result in adverse effects
same,blood count and clotting factors,7 days,no change in blood count or blood clotting factors
same,electrolytes,7 days,no change in electrolytes
same,liver enzyme and liver protein production,7 days,no change seen in liver enzyme or liver protein production
same,weight gain and behaviour,7 days,All animals continued to gain weight and behave normally
same,white blood cells,7 days,no increase in white blood cells
same,dose that appears to be safe,"rat, in vivo",30 times the effective dose
same,histopathology at the site of injection,"rat, in vivo",only minimal inflammation at the site of injection

# — patent US20190142971A1, “FORMULATION AND DELIVERY OF MODIFIED NUCLEOSIDE, NUCLEOTIDE, AND NUCLEIC ACID COMPOSITIONS” (ModernaTX, Inc., priority 2013, published 2019)
